Source: ChEMBL document CHEMBL3044818, “Fungicide resistance status in French populations of the wheat eyespot fungi Oculimacula acuformis and Oculimacula yallundae” (Pest Manag Sci, 2013)
Values after ≈ are worked out from the molar mass of the structure shown.

Test system: Oculimacula yallundae
Assay: Resistance index, ratio of EC50 for sterol 14alpha-demethylation inhibitor-resistant Oculimacula yallundae TriR1 to EC50 for wild type Oculimacula yallundae TriS by mycelial growth inhibition assay
Assay type: functional
Conditions: not given

In order of rising “Ratio EC50” value:
1. COc1cc(C)c(C(=O)c2c(OC)ccc(Br)c2C)c(OC)c1OC [METRAFENONE]  1
2. CC(C)(C)C(O)(CCc1ccc(Cl)cc1)Cn1cncn1 (stereo not given) [TEBUCONAZOLE]  20

Test system: Oculimacula yallundae
Assay: Resistance index, ratio of EC50 for prochloraz-resistant Oculimacula yallundae isolate ProR2 to EC50 for prochloraz-susceptible Oculimacula yallundae isolate ProS by germ tube elongation inhibition assay
Assay type: functional
Conditions: not given

In order of falling “Ratio EC50” value:
1. C[Si](Cn1cncn1)(c1ccc(F)cc1)c1ccc(F)cc1 [FLUSILAZOLE]  5
2. CC(C)(C)C(O)(CCc1ccc(Cl)cc1)Cn1cncn1 (stereo not given) [TEBUCONAZOLE]  5
3. CCCOC/C(=N\c1ccc(Cl)cc1C(F)(F)F)n1ccnc1 [TRIFLUMIZOLE]  0.8

Test system: Oculimacula yallundae
Assay: Fungicidal activity against prochloraz-susceptible Oculimacula yallundae isolate ProS assessed as inhibition of germ tube elongation incubated at 19 degC in dark for 48 hr
Assay type: functional, organism-based
Conditions: not given

In order of rising EC50:
1. C[Si](Cn1cncn1)(c1ccc(F)cc1)c1ccc(F)cc1 [FLUSILAZOLE]  0.2 µg/mL (≈ 0.634 µM)
2. CC(C)(C)C(O)(CCc1ccc(Cl)cc1)Cn1cncn1 (stereo not given) [TEBUCONAZOLE]  0.5 µg/mL (≈ 1.62 µM)
3. CCCOC/C(=N\c1ccc(Cl)cc1C(F)(F)F)n1ccnc1 [TRIFLUMIZOLE]  9 µg/mL (≈ 26 µM)

Test system: Oculimacula yallundae
Assay: Fungicidal activity against Oculimacula yallundae assessed as inhibition of germ tube elongation incubated at 19 degC in dark for 48 hr
Assay type: functional, organism-based
Conditions: not given

Going from `C[Si](Cn1cncn1)(c1ccc(F)cc1)c1ccc(F)cc1` [FLUSILAZOLE] to `CC(C)(C)C(O)(CCc1ccc(Cl)cc1)Cn1cncn1` (stereo not given) [TEBUCONAZOLE], the EC50 rises from 0.008 µg/mL (≈ 0.0254 µM) to 0.03 µg/mL (≈ 0.0975 µM) (3.8-fold).

Going from `COc1cc(C)c(C(=O)c2c(OC)ccc(Br)c2C)c(OC)c1OC` [METRAFENONE] to `CCCOC/C(=N\c1ccc(Cl)cc1C(F)(F)F)n1ccnc1` [TRIFLUMIZOLE], the EC50 falls from over 25 µg/mL to 0.07 µg/mL (≈ 0.202 µM).

Test system: Oculimacula yallundae
Assay: Resistance index, ratio of EC50 for prochloraz-resistant Oculimacula yallundae isolate ProR1 to EC50 for prochloraz-susceptible Oculimacula yallundae isolate ProS by mycelial growth inhibition assay
Assay type: functional
Conditions: not given

For `C[Si](Cn1cncn1)(c1ccc(F)cc1)c1ccc(F)cc1` [FLUSILAZOLE], the “Ratio EC50” value was 5.

Test system: Oculimacula yallundae
Assay: Resistance index, ratio of EC50 for sterol 14alpha-demethylation inhibitor-resistant Oculimacula yallundae MDR to EC50 for sterol 14alpha-demethylation inhibitor-resistant Oculimacula yallundae TriR1 by germ tube elongation assay
Assay type: functional
Conditions: not given

In order of rising “Ratio EC50” value:
1. CCCOC/C(=N\c1ccc(Cl)cc1C(F)(F)F)n1ccnc1 [TRIFLUMIZOLE]  1.1
2. CC(C)(C)C(O)(CCc1ccc(Cl)cc1)Cn1cncn1 (stereo not given) [TEBUCONAZOLE]  4

Test system: Oculimacula yallundae
Assay: Resistance index, ratio of EC50 for sterol 14alpha-demethylation inhibitor-resistant Oculimacula yallundae TriR2 to EC50 for wild type Oculimacula yallundae TriS by germ tube elongation assay
Assay type: functional
Conditions: not given

In order of rising “Ratio EC50” value:
1. CCCOC/C(=N\c1ccc(Cl)cc1C(F)(F)F)n1ccnc1 [TRIFLUMIZOLE]  71
2. CC(C)(C)C(O)(CCc1ccc(Cl)cc1)Cn1cncn1 (stereo not given) [TEBUCONAZOLE]  100

Test system: not listed separately
Assay: Selectivity index, ratio of EC50 for Oculimacula acuformis to EC50 for Oculimacula yallundae in presence of 10 g glucose by mycelial growth inhibition assay
Assay type: functional
Conditions: not given

Compared with `C[Si](Cn1cncn1)(c1ccc(F)cc1)c1ccc(F)cc1` [FLUSILAZOLE], `CC(C)(C)C(O)(CCc1ccc(Cl)cc1)Cn1cncn1` (stereo not given) [TEBUCONAZOLE] is higher in Ratio EC50: 6.7 for the first, 20 for the second.

Going from `COc1cc(C)c(C(=O)c2c(OC)ccc(Br)c2C)c(OC)c1OC` [METRAFENONE] to `CCCOC/C(=N\c1ccc(Cl)cc1C(F)(F)F)n1ccnc1` [TRIFLUMIZOLE], the Ratio EC50 rises from 0.1 to over 30.

Test system: Oculimacula yallundae
Assay: Resistance index, ratio of EC50 for prochloraz-resistant Oculimacula yallundae isolate ProR2 to EC50 for prochloraz-susceptible Oculimacula yallundae isolate ProS by mycelial growth inhibition assay
Assay type: functional
Conditions: not given

For `C[Si](Cn1cncn1)(c1ccc(F)cc1)c1ccc(F)cc1` [FLUSILAZOLE], the “Ratio EC50” value was 6.2.

Test system: Oculimacula yallundae
Assay: Resistance index, ratio of EC50 for sterol 14alpha-demethylation inhibitor-resistant Oculimacula yallundae TriR2 to EC50 for sterol 14alpha-demethylation inhibitor-resistant Oculimacula yallundae TriR1 by mycelial growth inhibition assay
Assay type: functional
Conditions: not given

In order of rising “Ratio EC50” value:
1. COc1cc(C)c(C(=O)c2c(OC)ccc(Br)c2C)c(OC)c1OC [METRAFENONE]  1.3
2. CC(C)(C)C(O)(CCc1ccc(Cl)cc1)Cn1cncn1 (stereo not given) [TEBUCONAZOLE]  1.5

Test system: Oculimacula yallundae
Assay: Fungicidal activity against Oculimacula yallundae assessed as inhibition of mycelial growth in presence of 10 g glucose incubated at 19 degC in dark for 4 weeks
Assay type: functional, organism-based
Conditions: 672 h

In order of falling EC50:
1. COc1cc(C)c(C(=O)c2c(OC)ccc(Br)c2C)c(OC)c1OC [METRAFENONE]  0.8 µg/mL
2. CCCOC/C(=N\c1ccc(Cl)cc1C(F)(F)F)n1ccnc1 [TRIFLUMIZOLE]  0.8 µg/mL
3. CC(C)(C)C(O)(CCc1ccc(Cl)cc1)Cn1cncn1 (stereo not given) [TEBUCONAZOLE]  0.2 µg/mL
4. C[Si](Cn1cncn1)(c1ccc(F)cc1)c1ccc(F)cc1 [FLUSILAZOLE]  0.06 µg/mL

Test system: Oculimacula yallundae
Assay: Resistance index, ratio of EC50 for sterol 14alpha-demethylation inhibitor-resistant Oculimacula yallundae TriR2 to EC50 for wild type Oculimacula yallundae TriS by mycelial growth inhibition assay
Assay type: functional
Conditions: not given

In order of falling “Ratio EC50” value:
1. CC(C)(C)C(O)(CCc1ccc(Cl)cc1)Cn1cncn1 (stereo not given) [TEBUCONAZOLE]  30
2. COc1cc(C)c(C(=O)c2c(OC)ccc(Br)c2C)c(OC)c1OC [METRAFENONE]  1.3

Test system: Oculimacula yallundae
Assay: Resistance index, ratio of EC50 for prochloraz-resistant Oculimacula yallundae isolate ProR1 to EC50 for prochloraz-susceptible Oculimacula yallundae isolate ProS by germ tube elongation inhibition assay
Assay type: functional
Conditions: not given

In order of rising “Ratio EC50” value:
1. CCCOC/C(=N\c1ccc(Cl)cc1C(F)(F)F)n1ccnc1 [TRIFLUMIZOLE]  0.1
2. C[Si](Cn1cncn1)(c1ccc(F)cc1)c1ccc(F)cc1 [FLUSILAZOLE]  2.5
3. CC(C)(C)C(O)(CCc1ccc(Cl)cc1)Cn1cncn1 (stereo not given) [TEBUCONAZOLE]  3

Test system: Oculimacula acuformis
Assay: Fungicidal activity against Oculimacula acuformis assessed as inhibition of mycelial growth in presence of 10 g glucose incubated at 19 degC in dark for 4 weeks
Assay type: functional, organism-based
Conditions: 672 h

Compared with `C[Si](Cn1cncn1)(c1ccc(F)cc1)c1ccc(F)cc1` [FLUSILAZOLE], `CC(C)(C)C(O)(CCc1ccc(Cl)cc1)Cn1cncn1` (stereo not given) [TEBUCONAZOLE] is 10-fold higher in EC50: 0.4 µg/mL for the first, 4 µg/mL for the second.

First: COc1cc(C)c(C(=O)c2c(OC)ccc(Br)c2C)c(OC)c1OC [METRAFENONE]
Second: CCCOC/C(=N\c1ccc(Cl)cc1C(F)(F)F)n1ccnc1 [TRIFLUMIZOLE]
The EC50 of the first is lower: 0.08 µg/mL for the first, over 25 µg/mL for the second.

Test system: Oculimacula yallundae
Assay: Resistance index, ratio of EC50 for sterol 14alpha-demethylation inhibitor-resistant Oculimacula yallundae MDR to EC50 for wild type Oculimacula yallundae TriS by mycelial growth inhibition assay
Assay type: functional
Conditions: not given

In order of rising “Ratio EC50” value:
1. COc1cc(C)c(C(=O)c2c(OC)ccc(Br)c2C)c(OC)c1OC [METRAFENONE]  1.1
2. CC(C)(C)C(O)(CCc1ccc(Cl)cc1)Cn1cncn1 (stereo not given) [TEBUCONAZOLE]  25

Test system: Oculimacula acuformis
Assay: Fungicidal activity against Oculimacula acuformis assessed as inhibition of germ tube elongation incubated at 19 degC in dark for 48 hr
Assay type: functional, organism-based
Conditions: not given

First: C[Si](Cn1cncn1)(c1ccc(F)cc1)c1ccc(F)cc1 [FLUSILAZOLE]
Second: CC(C)(C)C(O)(CCc1ccc(Cl)cc1)Cn1cncn1 (stereo not given) [TEBUCONAZOLE]
The EC50 of the first is 2.5-fold lower: 0.2 µg/mL (≈ 0.634 µM) for the first, 0.5 µg/mL (≈ 1.62 µM) for the second.

First: COc1cc(C)c(C(=O)c2c(OC)ccc(Br)c2C)c(OC)c1OC [METRAFENONE]
Second: CCCOC/C(=N\c1ccc(Cl)cc1C(F)(F)F)n1ccnc1 [TRIFLUMIZOLE]
The EC50 of the first is higher: over 25 µg/mL for the first, 9 µg/mL (≈ 26 µM) for the second.

Test system: not listed separately
Assay: Selectivity index, ratio of EC50 for Oculimacula acuformis to EC50 for Oculimacula yallundae by germ tube elongation inhibition assay
Assay type: functional
Conditions: not given

In order of rising Ratio EC50:
1. CC(C)(C)C(O)(CCc1ccc(Cl)cc1)Cn1cncn1 (stereo not given) [TEBUCONAZOLE]  17
2. C[Si](Cn1cncn1)(c1ccc(F)cc1)c1ccc(F)cc1 [FLUSILAZOLE]  25
3. CCCOC/C(=N\c1ccc(Cl)cc1C(F)(F)F)n1ccnc1 [TRIFLUMIZOLE]  129

Test system: Oculimacula yallundae
Assay: Fungicidal activity against prochloraz-susceptible Oculimacula yallundae isolate ProS assessed as inhibition of mycelial growth in presence of 10 g glucose incubated at 19 degC in dark for 4 weeks
Assay type: functional, organism-based
Conditions: 672 h

`C[Si](Cn1cncn1)(c1ccc(F)cc1)c1ccc(F)cc1` [FLUSILAZOLE] showed an EC50 of 0.4 µg/mL.

Test system: Oculimacula yallundae
Assay: Resistance index, ratio of EC50 for sterol 14alpha-demethylation inhibitor-resistant Oculimacula yallundae MDR to EC50 for sterol 14alpha-demethylation inhibitor-resistant Oculimacula yallundae TriR1 by mycelial growth inhibition assay
Assay type: functional
Conditions: not given

In order of rising “Ratio EC50” value:
1. COc1cc(C)c(C(=O)c2c(OC)ccc(Br)c2C)c(OC)c1OC [METRAFENONE]  1.1
2. CC(C)(C)C(O)(CCc1ccc(Cl)cc1)Cn1cncn1 (stereo not given) [TEBUCONAZOLE]  1.3

Test system: Oculimacula yallundae
Assay: Resistance index, ratio of EC50 for sterol 14alpha-demethylation inhibitor-resistant Oculimacula yallundae TriR2 to EC50 for sterol 14alpha-demethylation inhibitor-resistant Oculimacula yallundae TriR1 by germ tube elongation assay
Assay type: functional
Conditions: not given

In order of rising “Ratio EC50” value:
1. CCCOC/C(=N\c1ccc(Cl)cc1C(F)(F)F)n1ccnc1 [TRIFLUMIZOLE]  0.3
2. CC(C)(C)C(O)(CCc1ccc(Cl)cc1)Cn1cncn1 (stereo not given) [TEBUCONAZOLE]  1.5

Test system: Oculimacula yallundae
Assay: Resistance index, ratio of EC50 for sterol 14alpha-demethylation inhibitor-resistant Oculimacula yallundae MDR to EC50 for wild type Oculimacula yallundae TriS by germ tube elongation assay
Assay type: functional
Conditions: not given

In order of rising “Ratio EC50” value:
1. CCCOC/C(=N\c1ccc(Cl)cc1C(F)(F)F)n1ccnc1 [TRIFLUMIZOLE]  243
2. CC(C)(C)C(O)(CCc1ccc(Cl)cc1)Cn1cncn1 (stereo not given) [TEBUCONAZOLE]  267

Test system: Oculimacula yallundae
Assay: Resistance index, ratio of EC50 for sterol 14alpha-demethylation inhibitor-resistant Oculimacula yallundae TriR1 to EC50 for wild type Oculimacula yallundae TriS by germ tube elongation assay
Assay type: functional
Conditions: not given

In order of falling “Ratio EC50” value:
1. CCCOC/C(=N\c1ccc(Cl)cc1C(F)(F)F)n1ccnc1 [TRIFLUMIZOLE]  214
2. CC(C)(C)C(O)(CCc1ccc(Cl)cc1)Cn1cncn1 (stereo not given) [TEBUCONAZOLE]  67
